Measurements: PubChem BioAssay (NCI)
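Assay format: 96-well plates, 48-hour exposure. GI50 marks 50% less growth. TGI: concentration producing complete growth inhibition.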

Assays:
Experiment in all cases: NCI-60 cell line screen, 48 h
LOX IMVI melanoma = system: LOX IMVI melanoma
MCF7 breast = system: MCF7 breast
SW-620 colon = system: SW-620 colon
OVCAR-5 ovarian = system: OVCAR-5 ovarian
NCI-H460 lung = system: NCI-H460 lung
IGROV1 ovarian = system: IGROV1 ovarian
SNB-19 CNS = system: SNB-19 CNS
HCT-15 colon = system: HCT-15 colon
SK-MEL-28 melanoma = system: SK-MEL-28 melanoma
HCT-116 colon = system: HCT-116 colon
SK-MEL-5 melanoma = system: SK-MEL-5 melanoma
HT29 colon = system: HT29 colon
CAKI-1 renal = system: CAKI-1 renal
U251 CNS = system: U251 CNS
M14 melanoma = system: M14 melanoma
SK-MEL-2 melanoma = system: SK-MEL-2 melanoma
NCI/ADR-RES ovarian = system: NCI/ADR-RES ovarian
MALME-3M melanoma = system: MALME-3M melanoma
SK-OV-3 ovarian = system: SK-OV-3 ovarian
A549 NSCLC = system: A549 NSCLC
K-562 leukemia = system: K-562 leukemia
SF-268 CNS = system: SF-268 CNS
DU-145 prostate = system: DU-145 prostate
SNB-75 CNS = system: SNB-75 CNS
SF-295 CNS = system: SF-295 CNS
OVCAR-3 ovarian = system: OVCAR-3 ovarian
A498 renal = system: A498 renal
HOP-92 NSCLC = system: HOP-92 NSCLC
RXF 393 renal = system: RXF 393 renal
EKVX NSCLC = system: EKVX NSCLC
SF-539 CNS = system: SF-539 CNS
SR leukemia = system: SR leukemia
CCRF-CEM leukemia = system: CCRF-CEM leukemia
UACC-62 melanoma = system: UACC-62 melanoma
BT-549 breast = system: BT-549 breast
OVCAR-8 ovarian = system: OVCAR-8 ovarian
PC-3 prostate = system: PC-3 prostate
KM12 colon = system: KM12 colon
HOP-62 NSCLC = system: HOP-62 NSCLC
MDA-MB-231 breast = system: MDA-MB-231 breast
COLO 205 colon = system: COLO 205 colon
HS 578T breast = system: HS 578T breast
RPMI-8226 leukemia = system: RPMI-8226 leukemia
UACC-257 melanoma = system: UACC-257 melanoma
MOLT-4 leukemia = system: MOLT-4 leukemia
OVCAR-4 ovarian = system: OVCAR-4 ovarian
786-0 renal = system: 786-0 renal
HL-60(TB) leukemia = system: HL-60(TB) leukemia
NCI-H226 lung = system: NCI-H226 lung
ACHN renal = system: ACHN renal
UO-31 renal = system: UO-31 renal
TK-10 renal = system: TK-10 renal
MDA-MB-435 = system: MDA-MB-435

O=[N+]([O-])c1cc(Cl)c(Cl)c([N+](=O)[O-])c1Cl
GI50 (LOX IMVI melanoma): 299 nM | TGI (LOX IMVI melanoma): 1110 nM | GI50 (MCF7 breast): 1140 nM | TGI (MCF7 breast): 3420 nM | GI50 (SW-620 colon): 763 nM | TGI (SW-620 colon): 3360 nM | GI50 (OVCAR-5 ovarian): 2130 nM | TGI (OVCAR-5 ovarian): 4180 nM | GI50 (NCI-H460 lung): 3300 nM | TGI (NCI-H460 lung): > 100000 nM | GI50 (IGROV1 ovarian): 1420 nM | TGI (IGROV1 ovarian): 3020 nM | GI50 (SNB-19 CNS): 6550 nM | TGI (SNB-19 CNS): 22600 nM | GI50 (HCT-15 colon): 1000 nM | TGI (HCT-15 colon): 2840 nM | GI50 (SK-MEL-28 melanoma): 1740 nM | TGI (SK-MEL-28 melanoma): 3140 nM | GI50 (HCT-116 colon): 624 nM | TGI (HCT-116 colon): 2120 nM | GI50 (SK-MEL-5 melanoma): 1730 nM | TGI (SK-MEL-5 melanoma): 3470 nM | GI50 (HT29 colon): 1180 nM | TGI (HT29 colon): 4000 nM | GI50 (CAKI-1 renal): 184 nM | TGI (CAKI-1 renal): 360 nM | GI50 (U251 CNS): 1030 nM | TGI (U251 CNS): 2610 nM | GI50 (M14 melanoma): 642 nM | TGI (M14 melanoma): 2230 nM | GI50 (SK-MEL-2 melanoma): 1800 nM | TGI (SK-MEL-2 melanoma): 3370 nM | GI50 (NCI/ADR-RES ovarian): 1910 nM | TGI (NCI/ADR-RES ovarian): 3750 nM | GI50 (MALME-3M melanoma): 473 nM | TGI (MALME-3M melanoma): 2180 nM | GI50 (SK-OV-3 ovarian): 3880 nM | TGI (SK-OV-3 ovarian): 13400 nM | GI50 (A549 NSCLC): 1780 nM | TGI (A549 NSCLC): 3650 nM | GI50 (K-562 leukemia): 353 nM | TGI (K-562 leukemia): > 100000 nM | GI50 (SF-268 CNS): 1770 nM | TGI (SF-268 CNS): 3390 nM | GI50 (DU-145 prostate): 1630 nM | TGI (DU-145 prostate): 2990 nM | GI50 (SNB-75 CNS): 1470 nM | TGI (SNB-75 CNS): 2810 nM | GI50 (SF-295 CNS): 1990 nM | TGI (SF-295 CNS): 4400 nM | GI50 (OVCAR-3 ovarian): 1690 nM | TGI (OVCAR-3 ovarian): 3070 nM | GI50 (A498 renal): 6400 nM | TGI (A498 renal): 20900 nM | GI50 (HOP-92 NSCLC): 1920 nM | TGI (HOP-92 NSCLC): 3760 nM | GI50 (RXF 393 renal): 1820 nM | TGI (RXF 393 renal): 3250 nM | GI50 (EKVX NSCLC): 2230 nM | TGI (EKVX NSCLC): 5320 nM | GI50 (SF-539 CNS): 2530 nM | TGI (SF-539 CNS): 6940 nM | GI50 (SR leukemia): 538 nM | TGI (SR leukemia): 4930 nM | GI50 (CCRF-CEM leukemia): 236 nM | TGI (CCRF-CEM leukemia): > 100000 nM | GI50 (UACC-62 melanoma): 1940 nM | TGI (UACC-62 melanoma): 4350 nM | GI50 (BT-549 breast): 1810 nM | TGI (BT-549 breast): 3390 nM | GI50 (OVCAR-8 ovarian): 1340 nM | TGI (OVCAR-8 ovarian): 2970 nM | GI50 (PC-3 prostate): 1810 nM | TGI (PC-3 prostate): 3570 nM | GI50 (KM12 colon): 1440 nM | TGI (KM12 colon): 2970 nM | GI50 (HOP-62 NSCLC): 1820 nM | TGI (HOP-62 NSCLC): 3250 nM | GI50 (MDA-MB-231 breast): 1810 nM | TGI (MDA-MB-231 breast): 3790 nM | GI50 (COLO 205 colon): 1550 nM | TGI (COLO 205 colon): 2910 nM | GI50 (HS 578T breast): 2350 nM | TGI (HS 578T breast): 7470 nM | GI50 (RPMI-8226 leukemia): 422 nM | TGI (RPMI-8226 leukemia): 2610 nM | GI50 (UACC-257 melanoma): 1560 nM | TGI (UACC-257 melanoma): 3080 nM | GI50 (MOLT-4 leukemia): 436 nM | TGI (MOLT-4 leukemia): 5420 nM | GI50 (OVCAR-4 ovarian): 1690 nM | TGI (OVCAR-4 ovarian): 3060 nM | GI50 (786-0 renal): 1880 nM | TGI (786-0 renal): 3430 nM | GI50 (HL-60(TB) leukemia): 439 nM | TGI (HL-60(TB) leukemia): 2920 nM | GI50 (NCI-H226 lung): 2610 nM | TGI (NCI-H226 lung): 7160 nM | GI50 (ACHN renal): 1760 nM | TGI (ACHN renal): 3600 nM | GI50 (UO-31 renal): 1170 nM | TGI (UO-31 renal): 2450 nM | GI50 (TK-10 renal): 1530 nM | TGI (TK-10 renal): 2990 nM | GI50 (MDA-MB-435): 1700 nM | TGI (MDA-MB-435): 3460 nM
